What all share (experiment): relative viability (nuclei count vs DMSO), 5 days (fraction); higher = more cells survive
Compound in the assay “CAP-232 + Pemetrexed”: C[C@H]([C@@H](C(=O)N)NC(=O)[C@@H]1CSSC[C@@H](C(=O)N[C@H](C(=O)N[C@@H](C(=O)N[C@H](C(=O)N1)CCCCN)CC2=CNC3=CC=CC=C32)CC4=CC=C(C=C4)O)NC(=O)[C@@H](CC5=CC=CC=C5)N)O [CAP-232] + Nc1nc2[nH]cc(CCc3ccc(C(=O)N[C@@H](CCC(=O)O)C(=O)O)cc3)c2c(=O)[nH]1 [Pemetrexed] (partner 0.2 µM)
An outline of the steps:
(§1)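 After 5 days of treatment, lung cancer cells in 1536-well plates were fixed and stained in a single step (final 0.05% Triton X-100, 1% formaldehyde, 1 ug/ml Hoechst) and their nuclei counted on 4× images. Treatment had been applied by pin tool the day after seeding as one drug alone or as a fixed anchor-drug dose with five library-drug doses (not always all listed) in √10 steps. Relative viability is the nuclei count of treated wells divided by that of vehicle wells, and values are medians of duplicate plates.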

Compound in the assay “CAP-232 + Decitabine”: C[C@H]([C@@H](C(=O)N)NC(=O)[C@@H]1CSSC[C@@H](C(=O)N[C@H](C(=O)N[C@@H](C(=O)N[C@H](C(=O)N1)CCCCN)CC2=CNC3=CC=CC=C32)CC4=CC=C(C=C4)O)NC(=O)[C@@H](CC5=CC=CC=C5)N)O [CAP-232] + Nc1ncn([C@H]2C[C@H](O)[C@@H](CO)O2)c(=O)n1 [Decitabine] (partner 2 µM)
The gist of the method: as §1

Compound in the assay “CAP-232 + Bortezomib”: C[C@H]([C@@H](C(=O)N)NC(=O)[C@@H]1CSSC[C@@H](C(=O)N[C@H](C(=O)N[C@@H](C(=O)N[C@H](C(=O)N1)CCCCN)CC2=CNC3=CC=CC=C32)CC4=CC=C(C=C4)O)NC(=O)[C@@H](CC5=CC=CC=C5)N)O [CAP-232] + CC(C)C[C@H](NC(=O)[C@H](Cc1ccccc1)NC(=O)c1cnccn1)B(O)O [Bortezomib] (partner 0.002 µM)
An outline of the steps:
as §1

Compound in the assay “CAP-232 + Crizotinib”: C[C@H]([C@@H](C(=O)N)NC(=O)[C@@H]1CSSC[C@@H](C(=O)N[C@H](C(=O)N[C@@H](C(=O)N[C@H](C(=O)N1)CCCCN)CC2=CNC3=CC=CC=C32)CC4=CC=C(C=C4)O)NC(=O)[C@@H](CC5=CC=CC=C5)N)O [CAP-232] + C[C@@H](Oc1cc(-c2cnn(C3CCNCC3)c2)cnc1N)c1c(Cl)ccc(F)c1Cl [Crizotinib] (partner 1 µM)
An outline of the steps: as §1

Compound in the assay “CAP-232 + OSI-027”: C[C@H]([C@@H](C(=O)N)NC(=O)[C@@H]1CSSC[C@@H](C(=O)N[C@H](C(=O)N[C@@H](C(=O)N[C@H](C(=O)N1)CCCCN)CC2=CNC3=CC=CC=C32)CC4=CC=C(C=C4)O)NC(=O)[C@@H](CC5=CC=CC=C5)N)O [CAP-232] + COc1cccc2cc(-c3nc([C@H]4CC[C@H](C(=O)O)CC4)n4ncnc(N)c34)[nH]c12 [OSI-027] (partner 0.5 µM)
An outline of the steps: as §1

Consider HOP-62, for which the relative viability in the assay with CAP-232 + Pemetrexed (first compound 0.4 µM) amounted to 0.331; in the assay with CAP-232 + Pemetrexed (first compound 1.265 µM), 0.322; in the assay with CAP-232 + Pemetrexed (first compound 4 µM) it was 0.341; in the assay with CAP-232 + Pemetrexed (first compound 12.65 µM) it was 0.295; with CAP-232 + Decitabine (first compound 0.4 µM) it was 0.255; with CAP-232 + Decitabine (first compound 1.265 µM) it was 0.209. Besides, the relative viability came to 0.256 with CAP-232 + Decitabine (first compound 4 µM); 0.229 in the assay with CAP-232 + Decitabine (first compound 12.65 µM); 0.924 with CAP-232 + Bortezomib (first compound 0.4 µM); 1.11 with CAP-232 + Bortezomib (first compound 4 µM); 0.699 in the assay with CAP-232 + Bortezomib (first compound 12.65 µM); 1 with CAP-232 + Crizotinib (first compound 0.4 µM). The relative viability with CAP-232 + Crizotinib (first compound 4 µM) was determined as 1.05; with CAP-232 + Crizotinib (first compound 12.65 µM), 0.729; with CAP-232 + OSI-027 (first compound 0.4 µM) it was 1.03; with CAP-232 + OSI-027 (first compound 1.265 µM) it was 0.745; with CAP-232 + OSI-027 (first compound 4 µM), 0.756; with CAP-232 + OSI-027 (first compound 12.65 µM), 0.781.

For the cell line LC-2-ad, the relative viability with CAP-232 + Pemetrexed (first compound 0.4 µM) amounted to 0.278; with CAP-232 + Pemetrexed (first compound 1.265 µM), 0.269; with CAP-232 + Pemetrexed (first compound 4 µM), 0.287; in the assay with CAP-232 + Pemetrexed (first compound 12.65 µM) it was 0.228; with CAP-232 + Decitabine (first compound 0.4 µM), 0.866; with CAP-232 + Decitabine (first compound 1.265 µM), 0.705. The relative viability with CAP-232 + Decitabine (first compound 4 µM) came to 0.76; in the assay with CAP-232 + Decitabine (first compound 12.65 µM), 0.771; in the assay with CAP-232 + Bortezomib (first compound 0.4 µM) it was 1.05; with CAP-232 + Bortezomib (first compound 1.265 µM) it was 1.01; with CAP-232 + Bortezomib (first compound 4 µM) it was 1.11; in the assay with CAP-232 + Bortezomib (first compound 12.65 µM), 1. Besides, the relative viability in the assay with CAP-232 + Crizotinib (first compound 0.4 µM) was 0.436; in the assay with CAP-232 + Crizotinib (first compound 1.265 µM), 0.464; in the assay with CAP-232 + Crizotinib (first compound 4 µM) it was 0.451; in the assay with CAP-232 + Crizotinib (first compound 12.65 µM), 0.391; with CAP-232 + OSI-027 (first compound 0.4 µM), 0.954; in the assay with CAP-232 + OSI-027 (first compound 1.265 µM), 0.852. Besides, the relative viability turned out to be 0.756 in the assay with CAP-232 + OSI-027 (first compound 4 µM) and 0.559 with CAP-232 + OSI-027 (first compound 12.65 µM).

Consider LCLC-97TM1, for which the relative viability is 0.192 with CAP-232 + Pemetrexed (first compound 0.4 µM); 0.16 with CAP-232 + Pemetrexed (first compound 1.265 µM); 0.167 with CAP-232 + Pemetrexed (first compound 4 µM); 0.183 with CAP-232 + Pemetrexed (first compound 12.65 µM); 0.195 in the assay with CAP-232 + Decitabine (first compound 0.4 µM); 0.211 with CAP-232 + Decitabine (first compound 1.265 µM). For the same cell line, the relative viability is 0.192 with CAP-232 + Decitabine (first compound 4 µM); 0.237 with CAP-232 + Decitabine (first compound 12.65 µM); 0.83 in the assay with CAP-232 + Bortezomib (first compound 0.4 µM); 0.765 with CAP-232 + Bortezomib (first compound 1.265 µM); 0.856 in the assay with CAP-232 + Bortezomib (first compound 4 µM); 0.555 with CAP-232 + Bortezomib (first compound 12.65 µM). Further, the relative viability with CAP-232 + Crizotinib (first compound 0.4 µM) turned out to be 0.494; in the assay with CAP-232 + Crizotinib (first compound 1.265 µM), 0.347; with CAP-232 + Crizotinib (first compound 4 µM) it was 0.28; with CAP-232 + Crizotinib (first compound 12.65 µM) it was 0.315; in the assay with CAP-232 + OSI-027 (first compound 0.4 µM), 0.437; in the assay with CAP-232 + OSI-027 (first compound 1.265 µM), 0.523. Also, the relative viability with CAP-232 + OSI-027 (first compound 4 µM) was 0.601; with CAP-232 + OSI-027 (first compound 12.65 µM), 0.486.

With LCLC-103H, the relative viability came to 0.443 in the assay with CAP-232 + Pemetrexed (first compound 0.4 µM); 0.441 in the assay with CAP-232 + Pemetrexed (first compound 1.265 µM); 0.431 in the assay with CAP-232 + Pemetrexed (first compound 4 µM); 0.445 with CAP-232 + Pemetrexed (first compound 12.65 µM); 0.777 with CAP-232 + Decitabine (first compound 0.4 µM); 0.687 with CAP-232 + Decitabine (first compound 1.265 µM). The relative viability was determined as 0.735 in the assay with CAP-232 + Decitabine (first compound 4 µM); 0.704 in the assay with CAP-232 + Decitabine (first compound 12.65 µM); 1.33 with CAP-232 + Bortezomib (first compound 0.4 µM); 0.927 with CAP-232 + Bortezomib (first compound 1.265 µM); 1.16 in the assay with CAP-232 + Bortezomib (first compound 4 µM); 1 with CAP-232 + Bortezomib (first compound 12.65 µM). The relative viability with CAP-232 + Crizotinib (first compound 0.4 µM) was found to be 1.1; with CAP-232 + Crizotinib (first compound 1.265 µM), 0.984; with CAP-232 + Crizotinib (first compound 4 µM), 0.98; in the assay with CAP-232 + Crizotinib (first compound 12.65 µM), 1.06; with CAP-232 + OSI-027 (first compound 0.4 µM), 0.481; with CAP-232 + OSI-027 (first compound 1.265 µM), 0.375. Further, the relative viability with CAP-232 + OSI-027 (first compound 4 µM) was 0.496; in the assay with CAP-232 + OSI-027 (first compound 12.65 µM), 0.464.

For the origin of these results see the supplement of paper PMC10307832.
